Measured values as given in US6897319B2, “Useful aroyl pyrrole heteroaryl methanones and methanols” (Ortho-McNeil Pharmaceutical, Inc., priority 2001, dated 2005).
Marks after values point to notes of the source that are not given here.

Tests used:
[1] = system: voltage-gated sodium channels; experiment: Fluorometric membrane potential assay in SK-N-SH cells (veratridine stimulus, FLIPR); format: cell-based; details: 10 μM compound, 5 μM veratridine
Experimental: Screening Assay for Voltage-Gated Sodium Channel Antagonists Fluorometric Membrane Potential Assay
SK-N-SH neuroblastoma cells were maintained in a propagation medium containing modified Eagle's medium and 10% (v/v) fetal bovine serum and were incubated at 37° C. in a 5% CO2 atmosphere. Only cells with fewer than 20 passages were used in each assay. All drugs were prepared in DMSO, and the final concentration of solvent was less than 0.1% (v/v). Veratridine, a toxin that selectively promotes persistent activation of voltage-gated sodium channels, served as the stimulus. 24 hr prior to testing, 1×10^5 cells/well were plated into 96-well plates specifically designed for use in a fluorescent imaging plate reader (FLIPR) (Molecular Devices, Sunnyvale, Calif.)
Prior to screening, monolayers of cells were loaded with 100 μL/well of a proprietary voltage-sensitive dye (Molecular Devices, Sunnyvale, Calif.) for 30 min at 37° C. After this incubation period, the cells were stimulated with 5 μM veratridine in the presence or absence of investigational compounds (prepared at a final concentration of 10 μM in DMSO). A sample containing 5 μM veratridine and 10 μM tetrodotoxin accounted for nonspecific activity. The fluorescence was monitored by the FLIPR (Molecular Devices) from 10 sec prior to drug addition (50 μL) to 170 sec after drug addition at 25° C. During sodium channel activation, the cells depolarize and the dye associates with cell membranes, resulting in increased fluorescence.

[2] = system: mechanical allodynia after L5 spinal nerve ligation; experiment: Chung Model (spinal nerve ligation) antiallodynic effect; format: in vivo; details: rat; for % MPE in the Chung Model: oral, screening dose (not given)
Description: Procedure for Testing Antiallodynic Effect
The procedure used to detect the antiallodynic effect of a compound of the present invention for which there is a good correlation with human efficacy for the treatment of pain is the procedure for the measurement of allodynia found in the Chung Model (Kim S. H. and Chung J. M., An Experimental Model for Peripheral Neuropathy Produced by Segmental Spinal Nerve Ligation in the Rat, Pain, 1992, 50, 355-363). The antiallodynic effect of the composition of the present invention in the Chung Model is expressed in % MPE (Maximum Possible Effect).
Male Sprague-Dawley rats, weighing approximately 200 g each were anesthetized with isoflurane. The spinal nerve at the level of L5 was exposed through an incision just left of the dorsal midline and tightly ligated with 6-0 silk. At various times after surgery, animals were tested for mechanical allodynia with von Frey hairs (monofilaments which are calibrated to bend under a certain amount of pressure, ranging from 0.41 to 15.1 g). In order to calculate a paw withdrawal threshold (PWT), tactile allodynia was measured by recording the pressure at which the affected paw was withdrawn from graded stimuli according to the procedure of S. R. Chaplan, J. W. Pogrel, T. L. Yaksh, Role of Voltage-Dependent Calcium Channel Subtypes in Experimental Tactile Allodynia, J. Pharmacol. Exp. Ther., 1994, 269, 1117-1123. Normal rats can withstand at least 15 g of pressure without responding. Operated rats, however, can respond to as little as 0.25 g of pressure. The surgery was deemed successful if the animal responded with a PWT of less than 4 g of pressure applied to the affected paw. […] The PWT was used to calculate the % maximal possible effect (% MPE) according to the formula: %MPE=100×[(PWT−CT)/(CO−CT)]; wherein PWT is defined as Paw Withdrawal Threshold, CT is Control Threshold, and CO is Cut Off (defined as 15 g).
The sham operation consisted of a similar surgery; the spinal nerve was visualized without being ligated.
Compounds selected from Formula (I) and Formula (II) were tested for activity in treating or modulating neuropathic pain by being dissolved or suspended in either water or hydroxypropyl methylcellulose, respectively. Postoperative animals between 14 to 42 days were fasted overnight prior to dosing. Animals were orally dosed and dosage volumes were calculated on a 4 mL/kg basis.

[3] = system: voltage-gated sodium channels; experiment: [14C]guanidinium flux assay in SK-N-SH cells (veratridine stimulus); format: cell-based; details: 10 μM compound, 100 μM veratridine
Experimental: Screening Assay for Voltage-Gated Sodium Channel Antagonists [^14C] Guanidinium Flux Assay
SK-N-SH neuroblastoma cells were maintained in a propagation medium containing modified Eagle's medium and 10% (v/v) fetal bovine serum and were incubated at 37° C. in a 5% CO2 atmosphere. Only cells with fewer than 20 passages were used in each assay. All drugs were prepared in DMSO, and the final concentration of solvent was less than 0.1% (v/v). Veratridine, a toxin that selectively promotes persistent activation of voltage-gated sodium channels, served as the stimulus.
SK-N-SH cells were plated at 1×10^5 cells/well in 96-well Cytostar-T microscintillating plates in propagation medium and experiments were performed 6-7 days after plating. Prior to assay, the SK-N-SH cells were washed twice with assay buffer containing 50 mM HEPES (pH 7.45), 5.4 mM potassium chloride, 0.8 mM magnesium chloride, 130 mM choline chloride, 5.5 mM glucose and 0.1 mg/mL bovine serum albumin. Next, the plates were allowed to equilibrate for 10 min at 37° C. in assay buffer. After this incubation period, the cells were stimulated with 100 μM veratridine in the presence or absence of investigational compounds prepared in a 96-well plate (prepared at a final concentration of 10 μM in DMSO). The 96-well dosing plate was prepared by mixing 25 μL of a drug/assay buffer solution per well with 25 μL of 0.7 μCi/mL [^14C]guanidine hydrochloride in assay buffer. 50 μL aliquots from the dosing plate were then added to the cells. One sample containing 100 μM veratridine and 10 μM tetrodotoxin accounted for nonspecific activity. The plates were incubated for 1 hr at room temperature and the radioactivity was counted in a 1450 Microbeta scintillation counter.

[4] = system: maximal electroshock extensor seizure; experiment: Mouse maximal electroshock test (MES) anticonvulsant model; format: in vivo; details: oral
Experimental: Procedure for Testing in Mouse Anticonvulsant Model
The activity of the present compounds as anticonvulsant agents was determined using a standard mouse “maximal electroshock test” (MES). In this test, activity was indicated by a block of the […] extensor seizure, as described by Swinyard, et al. (J. Pharmacol. Exptl. Therap., 1952, 106, 319). A more recent description of current anticonvulsant drug screening is given in Swinyard, et al., in Epilepsia, 1978, 19, 409.
The anticonvulsant activity of the instant compounds is shown in Table 5 and was evaluated according to the Swinyard (1952) method. The abbreviations used in the table have the following meanings: mpk refers to the dose orally administered in “mg per Kg;” and, ED50 refers to the “50% Effective Dose” orally administered in mpk. The values marked by an * represent the number of mice protected/number of mice tested; therefore, a value of 3/3 represents that the number of mice protected matched the number of mice tested at the indicated dose.

Compound | % FI at 10 μM (% fluorescence inhibition) [1] | % MPE in the Chung Model [2] | % GFI at 10 μM (% guanidinium flux inhibition) [3] | other results
Cc1c(C(=O)c2ccc(F)cc2)c(C)n(C)c1C(=O)c1cccnc1 [Cpd 17, (4-Fluorophenyl)-[1,2,4-trimethyl-5-(pyridine-3-carbonyl)-1H-pyrrol-3-yl]methanone] | 15% | 59% |  | 
Cn1cc(C(=O)c2cc[n+]([O-])cc2)cc1C(=O)c1ccc(Cl)cc1 [Cpd 15, (4-Chlorophenyl)-[1-methyl-4-(1-oxypyridine-4-carbonyl)-1H-pyrrol-2-yl]methanone] | 40% | 7.9% | 4% | 
Cn1cc(C(=O)c2ccc3ccccc3c2)cc1C(=O)c1cccnc1 [Cpd 8, [1-Methyl-5-(pyridine-3-carbonyl)-1H-pyrrol-3-yl]naphthalen-2-yl-methanone] | 67% | 1.3% | 82% | MES Response, number of mice protected/number of mice tested ([4]; @ 300 mpk): 0/1* @ 300 mpk
Cn1cc(C(=O)c2ccc(Cl)cc2)cc1C(=O)c1ccc(Cl)nc1 [Cpd 9, (4-Chlorophenyl)-[5-(6-chloropyridine-3-carbonyl)-1-methyl-1H-pyrrol-3-yl]methanone] | 26% | 5% | 31% | 
Cl.Cn1cc(C(=O)c2ccc(F)cc2)cc1C(=O)c1cccnc1 [Cpd 7, (4-Fluorophenyl)-[1-methyl-5-(pyridine-3-carbonyl)-1H-pyrrol-3-yl]methanone Hydrochloride] | 45% |  | 57% | MES Response, number of mice protected/number of mice tested ([4]; @ 100 mpk): 2/3* @ 100 mpk; ED50 ([2]; po, orally administered): 22 mg/kg
Cn1cc(C(=O)c2ccncc2)cc1C(=O)c1ccccc1 [Cpd 2, (5-Benzoyl-1-methyl-1H-pyrrol-3-yl)pyridin-4-ylmethanone] | 76% | 7% |  | 
Cc1ccc(C(=O)c2cc(C(=O)c3ccncc3)cn2C)cc1.Cl [Cpd 3, [1-Methyl-5-(4-methylbenzoyl)-1H-pyrrol-3-yl]pyridin-4-ylmethanone Hydrochloride] | 45% | 5% |  | MES Response, number of mice protected/number of mice tested ([4]; @ 100 mpk): 3/3* @ 100 mpk
Cn1cc(C(=O)c2cnc[nH]2)cc1C(=O)c1ccc(Cl)cc1 [Cpd 13, (4-Chlorophenyl)-[4-(3H-imidazole-4-carbonyl)-1-methyl-1H-pyrrol-2-yl]methanone] | 62% |  | 24% | 
Cn1cc(C(O)c2ccncc2)cc1C(=O)c1ccc(Cl)cc1 (centres unmarked) [Cpd 12, (4-Chlorophenyl)-[4-(hydroxypyridin-4-yl-methyl)-1-methyl-1H-pyrrol-2-yl]-methanone] | 60% | 3.7% |  | 
Cn1cc(C(=O)c2ccccn2)cc1C(=O)c1ccc(Cl)cc1 [Cpd 6, [5-(4-Chlorobenzoyl)-1-methyl-1H-pyrrol-3-yl]pyridin-2-yl-methanone] | 25% | 12% | 74% | MES Response, number of mice protected/number of mice tested ([4]; @ 30 mpk): 1/1* @ 30 mpk
Cn1cc(C(=O)c2cc[n+](C)cc2)cc1C(=O)c1ccc(Cl)cc1.O.O=S(=O)([O-])C(F)(F)F [Cpd 14, 4-[[5-(4-Chlorobenzoyl)-1-methyl-1H-pyrrol-3-yl]carbonyl]-1-methylpyridinium trifluoromethanesulfonate hydrate [5:1]] | 54% |  | 14% | 
Cn1cc(C(=O)c2ccc(F)cc2)cc1C(=O)c1ccncc1 [Cpd 11, (4-Fluorophenyl)-[1-methyl-5-(pyridine-4-carbonyl)-1H-pyrrol-3-yl]methanone] | 39% | 10% |  | MES Response, number of mice protected/number of mice tested ([4]; @ 300 mpk): 0/1* @ 300 mpk
Cn1cc(C(O)c2cc[n+]([O-])cc2)cc1C(=O)c1ccc(Cl)cc1 (centres unmarked) [Cpd 16, (4-Chlorophenyl)-{4-[hydroxy-(1-oxy-pyridin-4-yl)methyl]-1-methyl-1H-pyrrol-2-yl}methanone] | 29% |  |  | ED50 in the Chung Model ([2]; orally administered): ED50 = 29 mpk
Cl.Cn1cc(C(=O)c2ccncc2)cc1C(=O)c1cccs1 [Cpd 4, [1-Methyl-5-(thiophene-2-carbonyl)-1H-pyrrol-3-yl]pyridin-4-ylmethanone hydrochloride] | 49% |  |  | MES Response, number of mice protected/number of mice tested ([4]; @ 300 mpk): 0/1* @ 300 mpk
Cl.Cn1cc(C(=O)c2cccnc2)cc1C(=O)c1ccc(Cl)cc1.Cn1cc(C(=O)c2cccnc2)cc1C(=O)c1ccc(Cl)cc1.O [Cpd 5, [5-(4-Chlorobenzoyl)-1-methyl-1H-pyrrol-3-yl]pyridin-3-ylmethanone hydrochoride hydrate [2:1:1]] | 26% | 9% | 55% | 
